Where a SMILES comes first, the peptide text is derived from it. Where no end group is shown, it is not given here. [ ]: non-standard residue; d: D form. Cit = NC(=O)NCCC[C@H](N)C(=O)O; pGlu = O=C1CC[C@@H](C(=O)O)N1
Legend:
human GALR2 = biological target: T1, human GALR2 (Homo sapiens, UniProt O43603); assay: SRE-luc reporter assay, GALR2;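 further: luciferase activity read in cell lysates after exposure to rising peptide concentrations, EC50 being the agonist level giving half-maximal stimulation from a sigmoidal nonlinear regression fit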; type: cell-based; conditions: HEK293-Gqi cells transfected with SRE-luc and human GALR2; 6 h ligand treatment; mean ± S.E. of at least three independent experiments; NM = not measurable; read-out: GALR2 EC50
T1 construct: host or cells: HEK293 cells stably expressing Gαqi
T1 sequence (O43603 1-387): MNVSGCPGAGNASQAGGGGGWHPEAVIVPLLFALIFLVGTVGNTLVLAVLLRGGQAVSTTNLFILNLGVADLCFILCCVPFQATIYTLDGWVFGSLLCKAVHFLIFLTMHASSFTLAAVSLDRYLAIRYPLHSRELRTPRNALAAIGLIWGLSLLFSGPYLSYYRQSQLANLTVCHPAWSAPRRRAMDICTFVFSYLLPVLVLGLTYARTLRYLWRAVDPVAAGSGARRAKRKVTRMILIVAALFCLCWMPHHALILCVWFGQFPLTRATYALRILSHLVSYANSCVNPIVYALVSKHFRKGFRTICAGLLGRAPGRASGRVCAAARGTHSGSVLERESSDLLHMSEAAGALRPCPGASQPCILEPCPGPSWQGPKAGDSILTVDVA
Method: (§1) The generated mutant SPX peptides were incubated with cells expressing GALR2 and GALR3. […] The activities of the receptors were traced using the serum-response element-driven luciferase (SRE-luc) assay system.
(§2) The SRE-luc reporter vector and plasmid containing human GALR1, GALR2, or GALR3 were transfected into HEK293 cells that stably expressed Gqi protein. Cells were then treated with increasing concentrations of mutant peptides, and the receptor activities were determined using the SRE-luc reporter system.
(§3) HEK293 cells stably expressing Gαqi, which mediates Gαi-coupled receptor activation by stimulating Gαq-dependent signaling pathways[59], were maintained in Dulbecco’s modified Eagle’s medium (DMEM) supplemented with 10% FBS, 100 U/ml penicillin G, and 100 μg/ml streptomycin (Invitrogen). Cells were seeded in 48-well plates at a density of 2 × 10^4 cells per well, one day before transfection. A mixture containing 75 ng of the SRE-luc reporter construct, 75 ng of expression plasmid, and 2 μl of Effectene reagent (Qiagen, Chatsworth, CA, USA) was prepared and added to each well according to the manufacturer’s instructions. Cells were then maintained in serum-free DMEM for 16–18 h before treatment with the ligands. Approximately 48 h after transfection, cells were treated with the respective ligands for 6 h. Cells were lysed by the addition of 100 μl lysis buffer. The luciferase activity in 50 μl of cell extract was determined by a luciferase assay system according to the standard protocol for the Synergy 2 Multi-Mode Microplate Reader (BioTek, Winooski, VT, USA).
(§4) For in vitro studies data analysis was performed by nonlinear regression with a sigmoidal dose-response. The agonist concentrations that induced half-maximal stimulation (EC50) or half-maximal inhibition of binding (IC50) were calculated with GraphPad PRISM4 software (GraphPad Software Inc., San Diego, CA, USA). […] All data are presented as mean ± S.E. of at least three independent experiments and a P value of P < 0.05 was considered statistically significant.

human GALR3 = biological target: T2, human GALR3 (Homo sapiens, UniProt O60755); assay: SRE-luc reporter assay, GALR3;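 further: luciferase activity read in cell lysates across rising peptide concentrations, EC50 being the agonist concentration giving half-maximal stimulation from a sigmoidal nonlinear fit, Gαqi routing Gi-coupled receptor signaling through Gq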; type: cell-based; conditions: HEK293-Gqi cells transfected with SRE-luc and human GALR3; 6 h ligand treatment; mean ± S.E. of at least three independent experiments; NM = not measurable; read-out: GALR3 EC50
T2 construct: host or cells: HEK293 cells stably expressing Gαqi
T2 sequence (O60755 1-368): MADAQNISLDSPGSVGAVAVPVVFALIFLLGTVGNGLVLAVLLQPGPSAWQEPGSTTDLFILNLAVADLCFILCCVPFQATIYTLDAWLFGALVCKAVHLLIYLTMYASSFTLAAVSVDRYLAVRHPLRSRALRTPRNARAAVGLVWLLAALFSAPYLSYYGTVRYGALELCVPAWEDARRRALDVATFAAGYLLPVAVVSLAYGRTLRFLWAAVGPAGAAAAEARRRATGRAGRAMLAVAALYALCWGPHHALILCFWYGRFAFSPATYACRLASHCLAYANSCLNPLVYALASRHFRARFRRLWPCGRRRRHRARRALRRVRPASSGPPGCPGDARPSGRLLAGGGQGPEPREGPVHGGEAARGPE
Method: as §1, §2, §3, §4

Molecule	EC50 (human GALR2) [µM]	EC50 (human GALR3) [µM]
CSCC[C@H](NC(=O)[C@H](C)NC(=O)[C@H](CCC(N)=O)NC(=O)[C@@H]1CCCN1C(=O)[C@@H](NC(=O)[C@H](Cc1c[nH]c2ccccc12)NC(=O)[C@@H](N)CCCNC(N)=O)[C@@H](C)O)C(=O)N[C@@H](CC(C)C)C(=O)N[C@@H](Cc1ccc(O)cc1)C(=O)N[C@@H](CC(C)C)C(=O)N[C@@H](CCCCN)C(=O)NCC(=O)N[C@@H](C)C(=O)N[C@@H](CCC(N)=O)C(N)=O [Cit1] (H-[Cit]WTPQAMLYLKGAQ-NH2)	0.0617 ± 0.019	0.251 ± 0.065
CSCC[C@H](NC(=O)[C@@H](C)NC(=O)[C@H](CCC(N)=O)NC(=O)[C@@H]1CCCN1C(=O)[C@@H](NC(=O)[C@H](Cc1c[nH]c2ccccc12)NC(=O)[C@@H](N)CC(N)=O)[C@@H](C)O)C(=O)N[C@@H](CC(C)C)C(=O)N[C@@H](Cc1ccc(O)cc1)C(=O)N[C@@H](CC(C)C)C(=O)N[C@@H](CCCCN)C(=O)NCC(=O)N[C@@H](C)C(=O)N[C@@H](CCC(N)=O)C(N)=O [dA6]	0.209 ± 0.027	0.316 ± 0.0471
CSCC[C@H](NC(=O)[C@H](C)NC(=O)[C@H](CCC(N)=O)NC(=O)[C@@H]1CCCN1C(=O)[C@@H](NC(=O)[C@H](Cc1c[nH]c2ccccc12)NC(=O)[C@@H](N)CC(N)=O)[C@@H](C)O)C(=O)N[C@@H](CC(C)C)C(=O)N[C@@H](Cc1ccc(O)cc1)C(=O)N[C@@H](CC(C)C)C(=O)N[C@@H](CCCCN)C(=O)N[C@H](C)C(=O)N[C@@H](C)C(=O)N[C@@H](CCC(N)=O)C(N)=O [dA12] (H-NWTPQAMLYLK[dA]AQ-NH2)	1.23 ± 0.159	1.41 ± 0.21
CSCC[C@H](NC(=O)[C@H](C)NC(=O)[C@H](CCC(N)=O)NC(=O)[C@@H]1CCCN1C(=O)[C@@H](NC(=O)[C@H](Cc1c[nH]c2ccccc12)NC(=O)[C@@H](N)CC(N)=O)[C@@H](C)O)C(=O)N[C@@H](CC(C)C)C(=O)N[C@@H](Cc1ccc(O)cc1)C(=O)N[C@H](CC(C)C)C(=O)N[C@@H](CCCCN)C(=O)NCC(=O)N[C@@H](C)C(=O)N[C@@H](CCC(N)=O)C(N)=O [dL10]	> 10	> 10
CSCC[C@H](NC(=O)[C@H](C)NC(=O)[C@H](CCC(N)=O)NC(=O)[C@@H]1CCCN1C(=O)[C@H](NC(=O)[C@H](Cc1c[nH]c2ccccc12)NC(=O)[C@@H](N)CC(N)=O)[C@H](C)O)C(=O)N[C@@H](CC(C)C)C(=O)N[C@@H](Cc1ccc(O)cc1)C(=O)N[C@@H](CC(C)C)C(=O)N[C@@H](CCCCN)C(=O)NCC(=O)N[C@@H](C)C(=O)N[C@@H](CCC(N)=O)C(N)=O [dT3]	> 10	> 10
CSCC[C@H](NC(=O)[C@H](C)NC(=O)[C@H](CCC(N)=O)NC(=O)[C@@H]1CCCN1C(=O)[C@@H](NC(=O)[C@H](Cc1c[nH]c2ccccc12)NC(=O)[C@@H](N)CC(N)=O)[C@@H](C)O)C(=O)N[C@@H](CC(C)C)C(=O)N[C@H](Cc1ccc(O)cc1)C(=O)N[C@@H](CC(C)C)C(=O)N[C@@H](CCCCN)C(=O)NCC(=O)N[C@@H](C)C(=O)N[C@@H](CCC(N)=O)C(N)=O [dY9]	> 10	> 10
CSCC[C@H](NC(=O)[C@H](C)NC(=O)[C@H](CCC(N)=O)NC(=O)[C@@H]1CCCN1C(=O)[C@@H](NC(=O)[C@H](Cc1c[nH]c2ccccc12)NC(=O)[C@@H]1CCC(=O)N1)[C@@H](C)O)C(=O)N[C@@H](CC(C)C)C(=O)N[C@@H](Cc1ccc(O)cc1)C(=O)N[C@@H](CC(C)C)C(=O)N[C@@H](CCCCN)C(=O)NCC(=O)N[C@@H](C)C(=O)N[C@@H](CCC(N)=O)C(N)=O [pQ1] ([pGlu]WTPQAMLYLKGAQ-NH2)	0.035 ± 0.00782	0.0617 ± 0.0104
NWTPNAALYLFGAH-NH2 [N5A7F11H14]	0.0545 ± 0.0108	3.02 ± 0.978
NWTPNAALYLFGAQ-NH2 [N5A7F11]	0.107 ± 0.0201	> 10
NWTPQAALYLFGAQ-NH2 [A7F11]	0.145 ± 0.027	> 10
NWTPQAALYLKGAQ-NH2 [A7]	0.0389 ± 0.00728	0.468 ± 0.0696

The remaining lines, values ahead:

EC50 (human GALR2) [µM]	EC50 (human GALR3) [µM]	Molecule
0.0363 ± 0.00747	0.0933 ± 0.0209	GWTPQAMLYLKGAQ-NH2 [G1]
0.0589 ± 0.00759	0.105 ± 0.0176	NWTLQAMLYLKGAQ-NH2 [L4]
0.0617 ± 0.0127	0.501 ± 0.184	NWTPNAMLYLKGAQ-NH2 [N5]
1.02 ± 0.132	1.23 ± 0.108	NWTPQAMGYLKGAQ-NH2 [G8]

— publication PMC4764904 (Scientific Reports, 2016)
